In the supplement of paper PMC10307832 one finds relative viability data, which are given here for nine cell lines.

What all share (assay): relative viability (nuclei count vs DMSO), 5 days (fraction); higher = more cells survive
Compound in the experiment “PAC-1 + Olaparib”: C=CCc1cccc(/C=N/NC(=O)CN2CCN(Cc3ccccc3)CC2)c1O [PAC-1] + O=C(c1cc(Cc2n[nH]c(=O)c3ccccc23)ccc1F)N1CCN(C(=O)C2CC2)CC1 [Olaparib] (partner 8 µM)
In short, it runs like this: (§1)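 Five library-drug doses in √10 steps were combined with a fixed anchor-drug dose, or a single drug was given alone, by pin tool to lung cancer cell lines in 1536-well plates the day after seeding. Nuclei were stained and counted after 5 days. Relative viability is the nuclei count in treated wells over that in vehicle wells, taken as the median of duplicate plates.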

Compound in the experiment “Ibrutinib + Palbociclib”: C=CC(=O)N1CCC[C@@H](n2nc(-c3ccc(Oc4ccccc4)cc3)c3c(N)ncnc32)C1 [Ibrutinib] + CC(=O)c1c(C)c2cnc(Nc3ccc(N4CCNCC4)cn3)nc2n(C2CCCC2)c1=O [Palbociclib] (partner 0.5 µM)
The essentials:
as §1

Compound in the experiment “PAC-1 + Trametinib”: C=CCc1cccc(/C=N/NC(=O)CN2CCN(Cc3ccccc3)CC2)c1O [PAC-1] + CC(=O)Nc1cccc(-n2c(=O)n(C3CC3)c(=O)c3c(Nc4ccc(I)cc4F)n(C)c(=O)c(C)c32)c1 [Trametinib] (partner 0.02 µM)
The essentials:
as §1

Compound in the experiment “BMX-IN-1 + Foretinib”: C=CC(=O)Nc1cc(-n2c(=O)ccc3cnc4ccc(-c5ccc(NS(C)(=O)=O)cc5)cc4c32)ccc1C [BMX-IN-1] + COc1cc2c(Oc3ccc(NC(=O)C4(C(=O)Nc5ccc(F)cc5)CC4)cc3F)ccnc2cc1OCCCN1CCOCC1 [Foretinib] (partner 0.25 µM)
In short, it runs like this: as §1

For the cell line 201T, the relative viability in the experiment with PAC-1 + Olaparib (first compound 0.02 µM) amounted to 0.817; with PAC-1 + Olaparib (first compound 0.06325 µM), 0.859; in the experiment with PAC-1 + Olaparib (first compound 0.2 µM), 0.857; in the experiment with PAC-1 + Olaparib (first compound 2 µM) it was 0.818; with Ibrutinib + Palbociclib (first compound 0.005 µM), 0.225; with Ibrutinib + Palbociclib (first compound 0.01581 µM), 0.327. Moreover, the relative viability with Ibrutinib + Palbociclib (first compound 0.05 µM) was 0.377; with Ibrutinib + Palbociclib (first compound 0.1581 µM), 0.378; with Ibrutinib + Palbociclib (first compound 0.5 µM), 0.36; in the experiment with PAC-1 + Trametinib (first compound 0.02 µM), 0.732; with PAC-1 + Trametinib (first compound 0.06325 µM) it was 0.717; with PAC-1 + Trametinib (first compound 0.2 µM), 0.687. Further, the relative viability in the experiment with PAC-1 + Trametinib (first compound 2 µM) came out at 0.717; with BMX-IN-1 + Foretinib (first compound 0.02 µM), 1.25; in the experiment with BMX-IN-1 + Foretinib (first compound 0.2 µM) it was 1.14; with BMX-IN-1 + Foretinib (first compound 0.6325 µM) it was 0.912; with BMX-IN-1 + Foretinib (first compound 2 µM) it was 1.12.

As for A549, the relative viability with PAC-1 + Olaparib (first compound 0.02 µM) was 0.344; with PAC-1 + Olaparib (first compound 0.06325 µM) it was 0.353; with PAC-1 + Olaparib (first compound 0.2 µM) it was 0.285; with PAC-1 + Olaparib (first compound 2 µM), 0.477; with BMX-IN-1 + Foretinib (first compound 0.02 µM), 1.14; with BMX-IN-1 + Foretinib (first compound 0.2 µM), 0.971. Moreover, the relative viability with BMX-IN-1 + Foretinib (first compound 0.6325 µM) came to 1.2; with BMX-IN-1 + Foretinib (first compound 2 µM), 0.982.

In the case of A-427, the relative viability was 0.786 with PAC-1 + Olaparib (first compound 0.02 µM); 0.776 with PAC-1 + Olaparib (first compound 0.06325 µM); 0.666 with PAC-1 + Olaparib (first compound 0.2 µM); 0.711 with PAC-1 + Olaparib (first compound 2 µM); 0.549 in the experiment with Ibrutinib + Palbociclib (first compound 0.005 µM); 0.533 in the experiment with Ibrutinib + Palbociclib (first compound 0.01581 µM). The relative viability in the experiment with Ibrutinib + Palbociclib (first compound 0.05 µM) stood at 0.491; with Ibrutinib + Palbociclib (first compound 0.5 µM) it was 0.496; with PAC-1 + Trametinib (first compound 0.02 µM) it was 0.767; with PAC-1 + Trametinib (first compound 0.06325 µM), 0.778; in the experiment with PAC-1 + Trametinib (first compound 0.2 µM) it was 0.817; in the experiment with PAC-1 + Trametinib (first compound 2 µM) it was 0.796. Moreover, the relative viability with BMX-IN-1 + Foretinib (first compound 0.02 µM) was found to be 1.1; with BMX-IN-1 + Foretinib (first compound 0.2 µM) it was 1.24; with BMX-IN-1 + Foretinib (first compound 0.6325 µM) it was 1.02; with BMX-IN-1 + Foretinib (first compound 2 µM), 0.97.

As to ABC-1, the relative viability in the experiment with PAC-1 + Olaparib (first compound 0.02 µM) amounted to 0.781; with PAC-1 + Olaparib (first compound 0.06325 µM) it was 0.668; with PAC-1 + Olaparib (first compound 0.2 µM), 0.848; in the experiment with PAC-1 + Olaparib (first compound 2 µM), 0.741; in the experiment with Ibrutinib + Palbociclib (first compound 0.005 µM), 0.482; with Ibrutinib + Palbociclib (first compound 0.01581 µM) it was 0.439. Also, the relative viability in the experiment with Ibrutinib + Palbociclib (first compound 0.5 µM) is 0.733; with BMX-IN-1 + Foretinib (first compound 0.02 µM) it was 1.21; with BMX-IN-1 + Foretinib (first compound 0.2 µM), 0.999; with BMX-IN-1 + Foretinib (first compound 0.6325 µM), 1.19; in the experiment with BMX-IN-1 + Foretinib (first compound 2 µM), 0.955.

Regarding BEN, the relative viability in the experiment with PAC-1 + Olaparib (first compound 0.02 µM) was found to be 1.14; with PAC-1 + Olaparib (first compound 0.06325 µM), 1.05; with PAC-1 + Olaparib (first compound 0.2 µM) it was 0.885; with PAC-1 + Olaparib (first compound 2 µM) it was 0.872; in the experiment with Ibrutinib + Palbociclib (first compound 0.005 µM) it was 0.462; in the experiment with Ibrutinib + Palbociclib (first compound 0.01581 µM), 0.465. In addition, the relative viability in the experiment with Ibrutinib + Palbociclib (first compound 0.05 µM) came out at 0.491; with Ibrutinib + Palbociclib (first compound 0.1581 µM), 0.459; with Ibrutinib + Palbociclib (first compound 0.5 µM), 0.453; with PAC-1 + Trametinib (first compound 0.02 µM), 1.08; with PAC-1 + Trametinib (first compound 0.06325 µM), 1.09; in the experiment with PAC-1 + Trametinib (first compound 0.2 µM), 1.17. For the same cell line, the relative viability in the experiment with PAC-1 + Trametinib (first compound 2 µM) was determined as 0.923; with BMX-IN-1 + Foretinib (first compound 0.02 µM), 0.635; in the experiment with BMX-IN-1 + Foretinib (first compound 0.2 µM), 0.698; in the experiment with BMX-IN-1 + Foretinib (first compound 0.6325 µM) it was 0.619; with BMX-IN-1 + Foretinib (first compound 2 µM) it was 0.819.

CAL-12T: the relative viability in the experiment with PAC-1 + Olaparib (first compound 0.02 µM) amounted to 0.719; in the experiment with PAC-1 + Olaparib (first compound 0.06325 µM) it was 0.701; in the experiment with PAC-1 + Olaparib (first compound 0.2 µM) it was 0.72; with PAC-1 + Olaparib (first compound 2 µM), 0.695; with Ibrutinib + Palbociclib (first compound 0.005 µM), 0.241; in the experiment with Ibrutinib + Palbociclib (first compound 0.01581 µM) it was 0.286. The relative viability is 0.233 with Ibrutinib + Palbociclib (first compound 0.05 µM); 0.286 with Ibrutinib + Palbociclib (first compound 0.1581 µM); 0.14 with Ibrutinib + Palbociclib (first compound 0.5 µM); 0.329 with PAC-1 + Trametinib (first compound 0.02 µM); 0.359 with PAC-1 + Trametinib (first compound 0.06325 µM); 0.353 with PAC-1 + Trametinib (first compound 0.2 µM). The relative viability in the experiment with PAC-1 + Trametinib (first compound 2 µM) stood at 0.386; with BMX-IN-1 + Foretinib (first compound 0.02 µM), 1.28; in the experiment with BMX-IN-1 + Foretinib (first compound 0.2 µM), 1.2; with BMX-IN-1 + Foretinib (first compound 0.6325 µM), 1.31; in the experiment with BMX-IN-1 + Foretinib (first compound 2 µM) it was 1.1.

Take COR-L23: the relative viability in the experiment with PAC-1 + Olaparib (first compound 0.02 µM) is 0.308; with PAC-1 + Olaparib (first compound 0.06325 µM), 0.334; with PAC-1 + Olaparib (first compound 2 µM), 0.379; with Ibrutinib + Palbociclib (first compound 0.005 µM), 0.285; with Ibrutinib + Palbociclib (first compound 0.01581 µM), 0.304; with Ibrutinib + Palbociclib (first compound 0.05 µM) it was 0.282. Moreover, the relative viability with Ibrutinib + Palbociclib (first compound 0.1581 µM) came to 0.353; with Ibrutinib + Palbociclib (first compound 0.5 µM) it was 0.332; with PAC-1 + Trametinib (first compound 0.02 µM) it was 0.586; with PAC-1 + Trametinib (first compound 0.06325 µM), 0.66; with PAC-1 + Trametinib (first compound 2 µM), 0.673; with BMX-IN-1 + Foretinib (first compound 0.02 µM), 1.18. Besides, the values for the relative viability in the experiment with BMX-IN-1 + Foretinib (first compound 0.2 µM), in the experiment with BMX-IN-1 + Foretinib (first compound 0.6325 µM) and with BMX-IN-1 + Foretinib (first compound 2 µM) were 1.1, 1.19 and 0.914, respectively.

With COR-L 105, the relative viability turned out to be 0.753 with PAC-1 + Olaparib (first compound 0.02 µM); 0.723 with PAC-1 + Olaparib (first compound 0.06325 µM); 0.631 with PAC-1 + Olaparib (first compound 0.2 µM); 0.789 with PAC-1 + Olaparib (first compound 2 µM); 0.403 in the experiment with Ibrutinib + Palbociclib (first compound 0.005 µM); 0.406 with Ibrutinib + Palbociclib (first compound 0.01581 µM). The relative viability with Ibrutinib + Palbociclib (first compound 0.05 µM) amounted to 0.424; with Ibrutinib + Palbociclib (first compound 0.1581 µM), 0.393; with Ibrutinib + Palbociclib (first compound 0.5 µM), 0.303; with PAC-1 + Trametinib (first compound 0.02 µM) it was 0.436; with PAC-1 + Trametinib (first compound 0.06325 µM), 0.453; with PAC-1 + Trametinib (first compound 0.2 µM) it was 0.47. For the same cell line, the relative viability with PAC-1 + Trametinib (first compound 2 µM) worked out at 0.355; with BMX-IN-1 + Foretinib (first compound 0.02 µM), 1.12; with BMX-IN-1 + Foretinib (first compound 0.2 µM) it was 1.2; with BMX-IN-1 + Foretinib (first compound 0.6325 µM) it was 1.37; with BMX-IN-1 + Foretinib (first compound 2 µM), 1.17.

Calu-6: the relative viability came out at 0.546 in the experiment with PAC-1 + Olaparib (first compound 0.02 µM); 0.585 with PAC-1 + Olaparib (first compound 0.06325 µM); 0.61 with PAC-1 + Olaparib (first compound 2 µM); 0.918 with BMX-IN-1 + Foretinib (first compound 0.02 µM); 1.07 in the experiment with BMX-IN-1 + Foretinib (first compound 0.2 µM); 0.908 in the experiment with BMX-IN-1 + Foretinib (first compound 0.6325 µM). Besides, in the experiment with BMX-IN-1 + Foretinib (first compound 2 µM), the relative viability came to 0.776.
